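Exposure lasted 48 hours, with cells grown in 96-well plates and compounds tested at five concentrations. Abbreviation: GI50, concentration required for 50% inhibition of growth. TGI is the concentration that stops growth completely.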 Where only a bound is given, the exact number is not on record here.

Some test systems named below: SN12C renal; SF-295 CNS; HCT-15 colon; SK-MEL-5 melanoma; TK-10 renal; COLO 205 colon; IGROV1 ovarian; HCC-2998 colon; UO-31 renal; MALME-3M melanoma.
What all share (test): NCI anticancer screen, dose series, 48 h

With `CO[C@@H]1CC(=O)C2(CC(=O)O[C@@H]2/C=C(\C)CCC=C(C)C)C[C@@H]1O` (some centres undefined), the GI50 in the assay on SN12C renal is 0.705 µM; in the assay with SF-295 CNS it was 1.43 µM; in the assay with HCT-15 colon, 0.56 µM; in the assay with SK-MEL-5 melanoma it was 0.913 µM; in the assay with TK-10 renal it was 1.26 µM; with COLO 205 colon it was 1.07 µM. Also, the GI50 was 1.09 µM with IGROV1 ovarian, 0.214 µM in the assay with HCC-2998 colon and 1.19 µM with UO-31 renal. The TGI in the assay on SN12C renal was 1.64 µM; with SF-295 CNS, above 11.7 µM; in the assay with HCT-15 colon it was 1.55 µM; in the assay with SK-MEL-5 melanoma, 2.13 µM; in the assay on TK-10 renal it was 3.35 µM; in the assay with COLO 205 colon it was 2.11 µM. Besides, the TGI came to 4.03 µM in the assay on IGROV1 ovarian and 0.814 µM in the assay on HCC-2998 colon.
In the case of `C=CCC(N[C@H](CO)c1ccccc1)c1cn(C(=O)OCC)c2ccccc12` (some centres undefined), the GI50 with SN12C renal was 18.3 µM; in the assay with SF-295 CNS it was 15.4 µM; in the assay on HCT-15 colon, 18.6 µM; in the assay on SK-MEL-5 melanoma, 17.5 µM; in the assay on TK-10 renal, 16.5 µM; with COLO 205 colon, 19.5 µM. Also, the GI50 is 8.46 µM in the assay on IGROV1 ovarian, 15.8 µM in the assay with HCC-2998 colon and 16.1 µM in the assay with UO-31 renal. Further, the TGI with SN12C renal was 32.7 µM; with SF-295 CNS, 29.3 µM; in the assay on HCT-15 colon it was 39.4 µM; in the assay on SK-MEL-5 melanoma, 32.8 µM; in the assay with TK-10 renal, 34 µM; in the assay on COLO 205 colon, 65.6 µM. Moreover, the results for the TGI in the assay with IGROV1 ovarian, in the assay on HCC-2998 colon and with UO-31 renal were 26.3 µM, 29.6 µM and 32.5 µM, respectively.
As to `CC(C)(C)C(=O)ON1N=NC2C3CC(OCc4ccccc4)(OCc4ccccc4)C(O3)C21` (centres undefined), the TGI in the assay with SN12C renal amounted to 39.3 µM; in the assay on SF-295 CNS, 52.9 µM; with MALME-3M melanoma, 31.2 µM; with HCT-15 colon it was 56.3 µM; with SK-MEL-5 melanoma, 31.9 µM; in the assay with COLO 205 colon, 38.4 µM. The TGI with IGROV1 ovarian was above 100 µM; in the assay on HCC-2998 colon, 31.2 µM; in the assay with UO-31 renal, 49.7 µM.
With `Cc1c2c[n+](C(C)C)ccc2c(C)c2c1[nH]c1ccccc12`, the GI50 was 0.32 µM in the assay with SN12C renal; 1.32 µM with SF-295 CNS; 1.48 µM with MALME-3M melanoma; 52.1 µM with HCT-15 colon; 1.5 µM in the assay with SK-MEL-5 melanoma; 21.1 µM in the assay with TK-10 renal. Besides, the GI50 in the assay with COLO 205 colon is 1.77 µM; in the assay on HCC-2998 colon, 2.99 µM; with UO-31 renal it was 20.6 µM. Besides, the TGI in the assay with SN12C renal was 11.8 µM; with SF-295 CNS, 20 µM; in the assay on MALME-3M melanoma, 6.9 µM; in the assay on HCT-15 colon, above 100 µM; with SK-MEL-5 melanoma, 3.89 µM; with TK-10 renal, above 100 µM. The TGI was 6.46 µM in the assay with COLO 205 colon, 13.7 µM in the assay with HCC-2998 colon and above 100 µM in the assay with UO-31 renal.
As for `CN(C)C(=O)c1cc2cnc(Nc3ccc(-c4csc5c(=O)cc(N6CCOCC6)oc45)cc3)nc2n1C1CCCC1`, the GI50 in the assay with SN12C renal was 0.21 µM; in the assay on SF-295 CNS, 0.242 µM; with HCT-15 colon it was 0.224 µM; with SK-MEL-5 melanoma it was 0.146 µM; with TK-10 renal it was 0.194 µM; in the assay with COLO 205 colon, 0.166 µM. Moreover, the GI50 in the assay with HCC-2998 colon is 0.219 µM; in the assay with UO-31 renal it was 0.0537 µM. In addition, the TGI with SN12C renal was 14.6 µM; with SF-295 CNS, 1.14 µM; in the assay with HCT-15 colon, 1.35 µM; with SK-MEL-5 melanoma it was 0.423 µM; in the assay with TK-10 renal, above 100 µM; in the assay with COLO 205 colon, 1.32 µM. For the same molecule, the TGI in the assay on HCC-2998 colon stood at 1.2 µM; in the assay with UO-31 renal, 0.287 µM.
As to `NC(=O)C(c1ccccc1)N1CCOCC1` (centres undefined), the TGI in the assay on SN12C renal, in the assay with SF-295 CNS, in the assay on MALME-3M melanoma, in the assay with HCT-15 colon, in the assay on SK-MEL-5 melanoma and in the assay with TK-10 renal was above 100 µM throughout. The TGI in the assay with COLO 205 colon, with IGROV1 ovarian and in the assay with UO-31 renal was above 100 µM in each case.
For `CCN(c1ccc(Br)cc1)c1c(Br)c(=O)nc2ccccn12`, the TGI in the assay with SN12C renal, in the assay on MALME-3M melanoma, in the assay with HCT-15 colon, in the assay on SK-MEL-5 melanoma, in the assay on TK-10 renal and in the assay with COLO 205 colon was above 100 µM each time. The TGI in the assay on IGROV1 ovarian and in the assay with UO-31 renal was above 100 µM in each case.
On to `COc1cccc(Cc2c3cc(OC)ccc3cc[n+]2C)c1`, for which the TGI is above 100 µM in the assay with SN12C renal; above 100 µM in the assay on SF-295 CNS; above 100 µM in the assay with MALME-3M melanoma; above 100 µM in the assay on HCT-15 colon; 65.4 µM with SK-MEL-5 melanoma; above 100 µM in the assay with TK-10 renal. Besides, the TGI in the assay with HCC-2998 colon and in the assay with UO-31 renal was above 100 µM throughout.
As for `CO[C@@H]1/C=C(C)/C=C/[C@@H](C)/C=C(\C)C(=O)OC(/C(C)=C/C=C(\C)CNC(=O)[C@H](CO)NC=O)[C@@H](C)/C=C/C=C/[C@H](OC)CC/C=C(C)/C=C/C1` (some centres undefined), the GI50 with SN12C renal is 0.182 µM; with SF-295 CNS, below 0.005 µM; in the assay with MALME-3M melanoma it was 0.0101 µM; in the assay with HCT-15 colon, 0.0225 µM; in the assay on SK-MEL-5 melanoma, below 0.005 µM; in the assay with TK-10 renal, below 0.005 µM. Further, the results for the GI50 with COLO 205 colon, in the assay on IGROV1 ovarian and in the assay on UO-31 renal were 0.00816 µM, below 0.005 µM and below 0.005 µM, respectively. The TGI is 12.2 µM in the assay on SN12C renal; 0.00951 µM in the assay with SF-295 CNS; 0.0261 µM with MALME-3M melanoma; 6.88 µM with HCT-15 colon; below 0.005 µM with SK-MEL-5 melanoma; 0.236 µM in the assay with TK-10 renal. Further, the TGI in the assay on COLO 205 colon was determined as 0.627 µM; in the assay on IGROV1 ovarian, 9.15 µM; with UO-31 renal, 0.425 µM.
On to `C#Cc1c(C(N)=O)ncn1C1OC(COP(=O)(OCc2ccc([N+](=O)[O-])o2)N(C)CCCCCl)C(O)C1O` (centres undefined), for which the GI50 with SN12C renal was 48.3 µM; in the assay with SF-295 CNS, 31.2 µM; in the assay on HCT-15 colon it was 31.3 µM; with SK-MEL-5 melanoma, 2.83 µM; with TK-10 renal, 43.1 µM; with COLO 205 colon, 5.5 µM. Besides, the GI50 in the assay on IGROV1 ovarian is 4.59 µM; with HCC-2998 colon, 16.2 µM; in the assay with UO-31 renal, 34.8 µM. Further, the TGI was above 100 µM in the assay on SN12C renal; above 100 µM in the assay on SF-295 CNS; above 100 µM with HCT-15 colon; 26.5 µM with SK-MEL-5 melanoma; above 100 µM with TK-10 renal; 88.2 µM in the assay with COLO 205 colon. Further, the TGI in the assay with IGROV1 ovarian, with HCC-2998 colon and with UO-31 renal was above 100 µM in each case.

The record behind these values is PubChem BioAssay (NCI).
